These molecules were tested against T1, Corticotropin-releasing factor receptor 1 (Homo sapiens, UniProt P34998) (assay: Binding affinity against human Corticotropin releasing factor receptor 1).
T1 sequence (P34998 whole entry): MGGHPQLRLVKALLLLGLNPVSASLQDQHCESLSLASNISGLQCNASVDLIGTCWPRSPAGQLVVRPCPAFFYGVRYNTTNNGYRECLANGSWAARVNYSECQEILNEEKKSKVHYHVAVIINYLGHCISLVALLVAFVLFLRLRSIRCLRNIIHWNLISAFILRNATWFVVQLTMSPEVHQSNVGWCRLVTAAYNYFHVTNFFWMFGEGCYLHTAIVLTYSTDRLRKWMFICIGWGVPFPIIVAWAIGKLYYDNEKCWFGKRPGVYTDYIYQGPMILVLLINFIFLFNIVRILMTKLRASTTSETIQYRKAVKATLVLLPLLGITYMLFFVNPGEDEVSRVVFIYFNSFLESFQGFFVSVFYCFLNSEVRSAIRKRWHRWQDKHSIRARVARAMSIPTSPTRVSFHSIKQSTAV

SMILES | Ki
CC(=O)/C(=N\c1ccccc1Cl)NNc1ccccc1C#N | > 10000 nM
CC(=O)C(=NNc1ccccc1S(N)(=O)=O)Nc1cccc(Cl)c1 | > 10000 nM
CC(=O)C(=NNc1ccccc1C(F)(F)F)Nc1cccc(C(F)(F)F)c1 | > 10000 nM
CC(=O)/C(=N\Nc1ccccc1Cl)N(C)c1cccc(Cl)c1 | > 10000 nM
CC(=O)/C(=N\Nc1ccccc1C(F)(F)F)N(C)c1cccc(Cl)c1 | > 10000 nM
CC(=O)/C(=N\Nc1ccccc1C#N)Nc1ccc(Cl)cc1 | 2210 nM
CC(=O)/C(=N\Nc1ccccc1C)N(C)c1cccc(Cl)c1 | > 10000 nM
CC(=O)/C(=N\Nc1ccccc1[N+](=O)[O-])Oc1cccc(Cl)c1 | > 10000 nM
CC(=O)/C(=N\Nc1ccccc1)Nc1cccc(Cl)c1 | 2720 nM
CC(=O)/C(=N\c1ccccc1)NNc1ccccc1C(F)(F)F | 2260 nM
CC(=O)C(=NNc1ccccc1C(F)(F)F)Nc1ccccc1Cl | > 10000 nM
CC(=O)/C(=N\Nc1ccccc1C#N)N(C)c1cccc(Cl)c1 | > 10000 nM
CC(=O)/C(=N\c1ccc(Cl)cc1)NNc1ccccc1C(F)(F)F | > 10000 nM
CSc1cccc(N/C(=N/Nc2ccccc2C(F)(F)F)C(C)=O)c1 | > 10000 nM
CC(=O)C(=NNc1ccccc1C(F)(F)F)Nc1cccc(C#N)c1 | > 10000 nM
CC(=O)C(=NNc1ccccc1)Nc1ccccc1 | 6230 nM
CC(=O)/C(=N\c1ccccc1Cl)NNc1ccccc1 | > 10000 nM
COc1cccc(NC(=NNc2ccccc2)C(C)=O)c1 | > 10000 nM

SMILES | Ki
CC(=O)/C(=N\Nc1ccccc1C)Sc1cccc(Cl)c1 | > 10000 nM
CC(=O)C(=NNc1ccccc1S(C)(=O)=O)Nc1cccc(Cl)c1 | > 10000 nM
CSc1cccc(N/C(=N/Nc2ccccc2C)C(C)=O)c1 | > 10000 nM
CCOc1cccc(N/C(=N/Nc2ccccc2C)C(C)=O)c1 | > 10000 nM
CC(=O)/C(=N\Nc1ccccc1)N(C)c1cccc(Cl)c1 | > 10000 nM
CC(=O)/C(=N\Nc1ccccc1Cl)Sc1cccc(Cl)c1 | > 10000 nM
CSc1cccc(N/C(=N/Nc2ccccc2Cl)C(C)=O)c1 | > 10000 nM
CC(=O)/C(=N\Nc1ccccc1C)Oc1cccc(Cl)c1 | > 10000 nM
CC(=O)/C(=N\Nc1ccccc1)Oc1cccc(Cl)c1 | > 10000 nM
CCOc1cccc(NC(=NNc2ccccc2C(F)(F)F)C(C)=O)c1 | > 10000 nM
COc1cccc(N/C(=N/Nc2ccccc2C(F)(F)F)C(C)=O)c1 | 6950 nM
CC(=O)/C(=N\Nc1ccccc1C(F)(F)F)Oc1cccc(Cl)c1 | > 10000 nM
CCOc1cccc(NC(=NNc2ccccc2Cl)C(C)=O)c1 | > 10000 nM
CC(=O)/C(=N\c1ccccc1Cl)NNc1ccccc1C | > 10000 nM
CC(=O)/C(=N\c1ccccc1Cl)NNc1ccccc1Cl | > 10000 nM
CC(=O)/C(=N\c1cccc(C#N)c1)NNc1ccccc1C | > 10000 nM
CC(=O)/C(=N\c1ccc(Cl)cc1)NNc1ccccc1 | > 10000 nM

The next molecules have a lower Ki than those just listed; values first:

Ki | SMILES
417 nM | CC(=O)C(=NNc1ccccc1Cl)Nc1cccc(Cl)c1
1400 nM | COc1cccc(NC(=NNc2ccccc2C)C(C)=O)c1
538 nM | CC(=O)C(=NNc1ccccc1C(F)(F)F)Nc1cccc(Cl)c1
43 nM | CC(=O)/C(=N\c1cccc(F)c1)NNc1ccccc1Cl
35 nM | C#Cc1cccc(/N=C(/NNc2ccccc2Cl)C(C)=O)c1
291 nM | CC(=O)/C(=N\c1cccc(C(F)(F)F)c1)NNc1ccccc1C
1830 nM | CC(=O)/C(=N\c1ccc(Cl)cc1)NNc1ccccc1C
197 nM | CC(=O)/C(=N\c1cccc(F)c1)NNc1ccccc1C(F)(F)F
1080 nM | CC(=O)C(=NNc1ccccc1C#N)Nc1ccccc1
526 nM | CC(=O)/C(=N\c1ccccc1)NNc1ccccc1C
62 nM | C#Cc1cccc(/N=C(/NNc2ccccc2C)C(C)=O)c1
115 nM | CC(=O)/C(=N\c1cccc(C)c1)NNc1ccccc1Cl
51 nM | CC(=O)C(=NNc1ccccc1[N+](=O)[O-])Nc1cccc(Cl)c1
526 nM | CC(=O)/C(=N\c1cccc(C)c1)NNc1ccccc1C
66 nM | C#Cc1cccc(NC(=NNc2ccccc2C(F)(F)F)C(C)=O)c1
415 nM | CC(=O)/C(=N\Nc1ccccc1C#N)Nc1cccc(Cl)c1
43 nM | CC(=O)/C(=N\c1cccc(F)c1)NNc1ccccc1C
299 nM | CC(=O)/C(=N\c1ccccc1)NNc1ccccc1Cl
652 nM | COc1cccc(N/C(=N/Nc2ccccc2Cl)C(C)=O)c1
1460 nM | CC(=O)/C(=N\c1cccc(Cl)c1)NNc1ccc(Br)cc1
650 nM | CC(=O)/C(=N\Nc1ccccc1C#N)Oc1cccc(C)c1

Source: ChEMBL document CHEMBL1135413, “Arylamidrazones as novel corticotropin releasing factor receptor antagonists” (J Med Chem, 2002)
